Assay results reported in paper PMC5453931, “Cathelicidin-trypsin inhibitor loop conjugate represents a promising antibiotic candidate with protease stability” (Scientific Reports, 2017).
Values after ≈ are worked out from the molar mass of the structure shown. Like-named read-outs stand apart in the source and are kept apart here.

How the values were obtained:
E. coli 08040726 [1] = format: cell-based; conditions: Gram-negative, two-fold broth microdilution, MH broth, 37 °C, 18 h, mean of three independent experiments in duplicates
Outline: (§1)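 Growth at A595 after 18 h at 37 °C defines the MIC, taken as the minimal peptide concentration giving no microbial growth. Organisms were grown to exponential phase in Mueller-Hinton broth and diluted to 10^6 CFU/mL prior to combining with an equal volume of peptide dilutions.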

08030209 = test: microbe, parasite or virus in culture; format: cell-based, Arcyria cinerea; conditions: Arcyria cinerea, 18 h, read-out: MIC Arcyria cinerea 08030209
Method: A two-fold broth microdilution method described in our previous paper was used to determine the antimicrobial activities of parental and hybrid peptides. More than 30 strains including Gram-negative bacteria, Gram-positive bacteria and fungi were used in the current assay, in which the standard strains were stored in our lab and the clinical strains were collected from local hospitals. Briefly, bacteria were incubated in Mueller-Hinton broth (MH broth) at 37 °C to exponential phase and diluted to 10^6 CFU/mL. A serial dilution of peptide sample were prepared in 96-well microtiter plates (50 μL) and mixed with equal volume of microbial inoculums (50 μL). The plate was slowly shaken in the microbial incubator, and measured at A595 after incubation at 37 °C for 18 h. The minimal concentrations at which no microbial growth occurred were recorded as MIC (minimal inhibitory concentration) values. The traditional antibiotic ampicillin was used as positive control. The results are shown in an average of the MICs obtained from three independent experiments.

Vibrio harveyi = test: microbe, parasite or virus in culture; format: cell-based; conditions: Vibrio harveyi, 18 h, read-out: MIC Vibrio harveyi
Outline: as §1

[2] = system: Bacillus subtilis 08042313; test: microbe, parasite or virus in culture; format: cell-based; conditions: Bacillus subtilis, 08042313, 18 h, read-out: MIC Bacillus subtilis 08042313
Outline: as §1

S. Aureus 08032810 = test: microbe, parasite or virus in culture; format: cell-based; conditions: Staphylococcus aureus, 18 h, read-out: MIC S. Aureus 08032810
Outline: as §1

Aeromonas sobria = test: microbe, parasite or virus in culture; format: cell-based; conditions: Aeromonas sobria, 18 h, read-out: MIC Aeromonas sobria
Outline: as §1

Edwardsiella tarda = test: microbe, parasite or virus in culture; format: cell-based; conditions: Edwardsiella tarda, 18 h, read-out: MIC Edwardsiella tarda
Outline: as §1

[3] = system: Candida albicans 08030102; test: microbe, parasite or virus in culture; format: cell-based; conditions: Candida albicans, 08030102, 18 h, read-out: MIC Candida albicans 08030102
Outline: as §1

[4] = system: Escherichia coli ATCC25922; test: microbe, parasite or virus in culture; format: cell-based; conditions: Escherichia coli, ATCC25922, 18 h, read-out: MIC Escherichia coli ATCC25922
Outline: as §1

K. Pneumoniae 08031012 = test: microbe, parasite or virus in culture; format: cell-based; conditions: Klebsiella pneumoniae, 18 h, read-out: MIC K. Pneumoniae 08031012
Outline: as §1

Proteus mirabilis 1376 = test: microbe, parasite or virus in culture; format: cell-based; conditions: Proteus mirabilis, 1376, 18 h, read-out: MIC Proteus mirabilis 1376
Outline: as §1

[5] = system: Shigella dysenteriae 0804203; test: microbe, parasite or virus in culture; format: cell-based; conditions: Shigella dysenteriae, 0804203, 18 h, read-out: MIC Shigella dysenteriae 0804203
Outline: as §1

E. Coli 08032823 = test: microbe, parasite or virus in culture; format: cell-based; conditions: Escherichia coli, 18 h, read-out: MIC E. Coli 08032823
Outline: as §1

S. Aureus 08032706 = test: microbe, parasite or virus in culture; format: cell-based; conditions: Staphylococcus aureus, 18 h, read-out: MIC S. Aureus 08032706
Outline: as §1

Vibrio cholerae = test: microbe, parasite or virus in culture; format: cell-based; conditions: Vibrio cholerae, 18 h, read-out: MIC Vibrio cholerae
[6] = system: Enterococcus faecium 08052315; test: microbe, parasite or virus in culture; format: cell-based; conditions: Enterococcus faecium, 08052315, 18 h, read-out: MIC Enterococcus faecium 08052315
Outline: as §1

Vibrio brasiiensis = test: microbe, parasite or virus in culture; format: cell-based; conditions: Vibrio, 18 h, read-out: MIC Vibrio brasiiensis
Outline: as §1

S. Maltophilia 090223 = test: microbe, parasite or virus in culture; format: cell-based; conditions: Stenotrophomonas maltophilia, 18 h, read-out: MIC S. Maltophilia 090223
Outline: as §1

Aeromonas veronii = test: microbe, parasite or virus in culture; format: cell-based; conditions: Aeromonas veronii, 18 h, read-out: MIC Aeromonas veronii
Outline: as §1

[7] = system: Nocardia asteroides 08052412; test: microbe, parasite or virus in culture; format: cell-based; conditions: Nocardia asteroides, 08052412, 18 h, read-out: MIC Nocardia asteroides 08052412
Outline: as §1

K. Pneumoniae 08040202 = test: microbe, parasite or virus in culture; format: cell-based; conditions: Klebsiella pneumoniae, 18 h, read-out: MIC K. Pneumoniae 08040202
Outline: as §1

Candida glabrata 08A802 = test: microbe, parasite or virus in culture; format: cell-based; conditions: Nakaseomyces glabratus, 08A802, 18 h, read-out: MIC Candida glabrata 08A802
Outline: as §1

P. Aeruginosa 08021015 = test: microbe, parasite or virus in culture; format: cell-based; conditions: Pseudomonas aeruginosa, 18 h, read-out: MIC P. Aeruginosa 08021015
Outline: as §1

S. Aureus 08032615 = test: microbe, parasite or virus in culture; format: cell-based; conditions: Staphylococcus aureus, 18 h, read-out: MIC S. Aureus 08032615
Outline: as §1

E. coli 08040726 [8] = test: Bacterial killing kinetic assay, colony counting; format: cell-based
Method: The bacterial killing kinetics of the hybrid peptides against E. coli 08040726 was determined by counting the changes in the viable bacterial clones after peptide treatment. The experiment was carried out according to the method described previously with minor modifications. Fresh colonies of the bacteria were incubated in MH broth at 37 °C for 12 h and diluted to 10^6 CFU/in fresh MH broth. The hybrid peptide was added to the bacterial suspension with a final concentration of 1x and 5x corresponding MICs, and incubated at 37 °C for 0, 10, 20, 30, 45, 60, 90, 120, and 180 mins. At each time point, aliquots (50 μL) were removed and diluted with fresh MH broth for 1000 times. […] of the dilutions were coated on MH agar plates, incubated overnight at 37 °C, and the viable colonies were counted. Ampicillin was used as positive control and sterile deionized water was used as negative control.

[9] = system: Staphylococcus epidermidis; test: MIC, two-fold broth microdilution; format: cell-based; conditions: Staphylococcus epidermidis, 18 h, read-out: MIC Staphylococcus epidermidis
Outline: as §1

E. Coli 08032813 = test: MIC, two-fold broth microdilution; format: cell-based; conditions: Escherichia coli, 18 h, read-out: MIC E. Coli 08032813
Outline: as §1

Vibrio Parahaemolyticus = test: MIC, two-fold broth microdilution; format: cell-based; conditions: Vibrio parahaemolyticus, 18 h, read-out: MIC Vibrio Parahaemolyticus
Outline: as §1

E. coli 08040726 [10] = test: MIC, two-fold broth microdilution (second listing of the strain number); format: cell-based; conditions: Gram-negative, MH broth, 37 °C, 18 h, mean of three independent experiments in duplicates
Outline: as §1

In the case of `CC1(C)S[C@@H]2[C@H](NC(=O)[C@H](N)c3ccccc3)C(=O)N2[C@H]1C(=O)O` [Ampicillin, reference compound], the “MIC E. coli 08040726” value (E. coli 08040726 [1]) is reported as 9.38 µg/mL (≈ 26.8 µM), the “MIC E. coli 08040726” value (E. coli 08040726 [1]; listed as ampicillin) is reported as 0.12 µg/mL (≈ 0.343 µM) and the MIC 08030209 is reported as greater than 200 µg/mL. The MIC (Vibrio harveyi) was 37.5 µg/mL (≈ 107 µM), the MIC [2] was 75 µg/mL (≈ 215 µM) and the MIC (S. Aureus 08032810) was greater than 200 µg/mL. It also gave an MIC (Aeromonas sobria) greater than 200 µg/mL, an MIC (Edwardsiella tarda) greater than 200 µg/mL and an MIC [3] of 18.8 µg/mL (≈ 53.7 µM). The MIC [4] was 4.69 µg/mL (≈ 13.4 µM), the MIC (K. Pneumoniae 08031012) was greater than 200 µg/mL and the MIC (Proteus mirabilis 1376) was 75 µg/mL (≈ 215 µM). For the same molecule, the MIC [5] was 75 µg/mL (≈ 215 µM), the MIC (E. Coli 08032823) was greater than 200 µg/mL and the MIC (S. Aureus 08032706) was 18.8 µg/mL (≈ 53.7 µM). The MIC (Vibrio cholerae) was greater than 200 µg/mL, the MIC [6] was greater than 200 µg/mL and the MIC (Vibrio brasiiensis) was greater than 200 µg/mL. For the same molecule, the MIC (S. Maltophilia 090223) was greater than 200 µg/mL, the MIC (Aeromonas veronii) was greater than 200 µg/mL and the MIC [7] was greater than 200 µg/mL. For the same molecule, the MIC (K. Pneumoniae 08040202) was greater than 200 µg/mL, the MIC (Candida glabrata 08A802) was 18.8 µg/mL (≈ 53.7 µM) and the MIC (P. Aeruginosa 08021015) was 9.38 µg/mL (≈ 26.8 µM). For the same molecule, the MIC (S. Aureus 08032615) was 9.38 µg/mL (≈ 26.8 µM), the “time of killing toward E. coli” value (E. coli 08040726 [8]; 1xMIC) was 6 h and the “time of killing toward E. coli” value (E. coli 08040726 [8]; 5xMIC) was 3 h. It also gave an MIC [9] greater than 200 µg/mL, an MIC (E. Coli 08032813) greater than 200 µg/mL and an MIC (Vibrio Parahaemolyticus) of 18.8 µg/mL (≈ 53.7 µM). The “MIC E. Coli 08040726 (second line with this strain number)” value (E. coli 08040726 [10]) was “— (no detectable activity in MIC assay in dose of 200 µg/mL or in trypsin inhibition assay at concentration of 160 μg/mL)”.
